Measurements: US20130072874A1, “DEVICE HAVING ARRAY PROVIDED WITH FINE PROTRUSIONS” (HISAMITSU PHARMACEUTICAL CO., INC., priority 2010, published 2013)

Test system: shaved dorsal portion of each guinea pig
Assay: Suppression of UVB-induced pigmentation, serum applied in advance then device
Assay type: in vivo
Settings: serum 80 μL (20 μL/cm^2) applied, then 150 μm array device; from the 4th day of device application onward
Description: A serum containing 4-(4-hydroxyphenyl)-2-butanol as an active ingredient solution was applied at 80 μL (20 μL/cm^2) to the shaved dorsal portion of each guinea pig, and then, a device having an array provided with microprotrusions was prepared for the purpose of stretching the skin by the microprotrusions of the array. The array was made of polylactic acid as a material and was of 150 μm as the length of the protrusions, 841 protrusions/cm^2 as the density of the protrusions, and 1 cm^2 as the area, and for a device, the array was fixed onto a covering member (holding member) prepared by stacking a rubber-based pressure-sensitive adhesive layer onto a support (3 cm×5 cm) made of nonwoven fabric.

CC(O)CCc1ccc(O)cc1 (stereo not shown) [4-(4-hydroxyphenyl)-2-butanol]
effect of suppressing pigmentation attributed to UVB irradiation: effect of suppressing pigmentation attributed to UVB irradiation was observed
